US11649246B2, “Salts of 4-amino-N-(l-((3-chloro-2-fluorophenyl)amino)-6-methylisoquinolin-5-yl)thieno[3,2-D]pyrimidine-7-carboxamide, and crystalline forms thereof” (Hanmi Pharm. Co., Ltd., priority 2017, dated 2023)
Converted amounts (≈) assume the structure as drawn. Like-named read-outs stand apart in the source and are kept apart here.

What was measured:
Format in all cases: physicochemical
[1] = Hygroscopicity by dynamic vapor sorption (DVS); settings: Form I trihydrate
Description: Dynamic vapor sorption (DVS) analysis was performed in a DVS advantage (Surface measurement system, United Kingdom) analyzer at 25° C. with a relative humidity of 0% to 90%. A sample in an amount of 10 mg was placed into a wire-mesh vapor sorption balance pan and then attached to a DVS advantage dynamic vapor sorption balance via surface measurement systems. […] Upon completion of the sorption cycle, the sample was dried using the same process while maintaining a relative humidity of 0%. The changes in the sample weight during the adsorption/desorption cycle (repeated 3 times) were recorded and the hygroscopicity of the sample was measured. DVS isotherm diagrams are presented in FIGS. 1, 3, 6, 10, 13, 16 and 19 where Target PP (%) refers to relative humidity, “SORP” refers to adsorption and “DESORP” refers to desorption.
Hygroscopicity was measured by DVS where the DVS curve for Formula (I) bis-hydrochloride was recorded in a DVS Advantage I analyzer (SMS, United Kingdom). The DVS was operated over 3 cycles for measurement of the surface adsorption effects of water, from 0% RH to 90% RH at 25°.

[2] = Solubility of bis-hydrochloride Form I by HPLC test and observation test
Description: Solubility was measured by HPLC according to KP, USP and EP general chapters. […] The results of solubility were same between HPLC test and observation test.

[3] = Long-term stability at 20° C. to 30° C., 60% relative humidity, protection from light; settings: 60% RH
Description: The stability of crystalline Formula (I) bis-hydrochloride Form I was evaluated at 3 months, 6 months, 9 months, 12 months, 18 months and 24 under conditions of 20° C. to 30° C. at 60% relative humidity and protection from light. Stability criteria included the following. At each interval from 3 to 24 months the crystalline Formula (I) bis-hydrochloride Form I appeared as a pale brown to off-white powder. Identification was performed by IR, PXRD and HPLC methods as described elsewhere herein with results reported as pass/fail. Purity was determined by HPLC with known impurities at relative retention times (“RRT”) of 1.1, 1.7 and 2.1. The results are shown in Table 22 where “Init” refers to initial, “Iden” refers to identification, “Imp” refers to impurity, “A.U.I.” refers to any unspecified impurity, “T.U.I.” refers to total unspecified impurity, “T.I.” refers to total impurities, and “N.D.” refers to not detected. The PXRD results at initial, 6 months, 12 months and 24 months are depicted in FIG. 33.

Cc1ccc2c(Nc3cccc(Cl)c3F)nccc2c1NC(=O)c1csc2c(N)ncnc12 [Example 3, 4-amino-N-(1-((3-chloro-2-fluorophenyl)amino)-6-methylisoquinolin-5-yl)thieno[3,2-d]pyrimidine-7-carboxamide]
water content (DVS) ([1]; at 20% relative humidity (sorption and desorption)): about 9%
water content (DVS) ([1]; at 90% relative humidity (sorption and desorption)): about 14%
solubility ([2]; ACN): 113431 mL/g
Solubility Observation ([2]; ACN, listed as Formula (I) bis-hydrochloride Form I): Practically insoluble
solubility ([2]; DMSO): 8 mL/g
Solubility Observation ([2]; DMSO, listed as Formula (I) bis-hydrochloride Form I): Freely soluble
solubility ([2]; Dichloromethane): 366289 mL/g
Solubility Observation ([2]; Dichloromethane, listed as Formula (I) bis-hydrochloride Form I): Practically insoluble
solubility ([2]; Ethanol): 1316 mL/g
Solubility Observation ([2]; Ethanol, listed as Formula (I) bis-hydrochloride Form I): Very slightly soluble
solubility ([2]; Ethyl acetate): 356535 mL/g
Solubility Observation ([2]; Ethyl acetate, listed as Formula (I) bis-hydrochloride Form I): Practically insoluble
solubility ([2]; Ethyl ether): 522061 mL/g
Solubility Observation ([2]; Ethyl ether, listed as Formula (I) bis-hydrochloride Form I): Practically insoluble
solubility ([2]; Methanol): 58 mL/g
Solubility Observation ([2]; Methanol, listed as Formula (I) bis-hydrochloride Form I): Sparingly soluble
solubility ([2]; Water): 654940 mL/g
Solubility Observation ([2]; Water, listed as Formula (I) bis-hydrochloride Form I): Practically insoluble
solubility ([2]; aqueous buffer, thermodynamic from solid, pH 3.0 buffer, read-out: Solubility): 20 µg/mL (≈ 41.8 µM)
solubility ([2]; aqueous buffer, thermodynamic from solid, pH 4.0 buffer, read-out: Solubility): 3 µg/mL (≈ 6.26 µM)
solubility ([2]; aqueous buffer, thermodynamic from solid, pH 5.0 buffer, read-out: Solubility): 0.09 µg/mL (≈ 0.188 µM)
solubility ([2]; aqueous buffer, thermodynamic from solid, pH 6.0 buffer, read-out: Solubility): 0.1 µg/mL (≈ 0.209 µM)
solubility ([2]; aqueous buffer, thermodynamic from solid, pH 6.8 buffer, read-out: Solubility): 0.09 µg/mL (≈ 0.188 µM)
solubility ([2]; aqueous buffer, thermodynamic from solid, pH 7.0 buffer, read-out: Solubility): 0.06 µg/mL (≈ 0.125 µM)
solubility ([2]; aqueous buffer, thermodynamic from solid, pH 8.0 buffer, read-out: Solubility): 0.05 µg/mL (≈ 0.104 µM)
solubility ([2]; n-Hexane): 22316479 mL/g
Solubility Observation ([2]; n-Hexane, listed as Formula (I) bis-hydrochloride Form I): Practically insoluble
solubility ([2]; organic solvent or mixture, thermodynamic from solid, ACN, read-out: Solubility): 8 µg/mL (≈ 16.7 µM)
solubility ([2]; organic solvent or mixture, thermodynamic from solid, DMSO, read-out: Solubility): 131000 µg/mL (≈ 273000 µM)
solubility ([2]; organic solvent or mixture, thermodynamic from solid, Dichloromethane, read-out: Solubility): 2.7 µg/mL (≈ 5.64 µM)
solubility ([2]; organic solvent or mixture, thermodynamic from solid, Ethanol, read-out: Solubility): 800 µg/mL (≈ 1670 µM)
solubility ([2]; organic solvent or mixture, thermodynamic from solid, Ethyl acetate, read-out: Solubility): 2.8 µg/mL (≈ 5.85 µM)
solubility ([2]; organic solvent or mixture, thermodynamic from solid, Ethyl ether, read-out: Solubility): 1.9 µg/mL (≈ 3.97 µM)
solubility ([2]; organic solvent or mixture, thermodynamic from solid, Methanol, read-out: Solubility): 17400 µg/mL (≈ 36300 µM)
solubility ([2]; organic solvent or mixture, thermodynamic from solid, n-Hexane, read-out: Solubility): 0.04 µg/mL (≈ 0.0835 µM)
solubility ([2]; pH 1.2 buffer): 3811 mL/g
Solubility Observation ([2]; pH 1.2 buffer, listed as Formula (I) bis-hydrochloride Form I): Very slightly soluble
solubility ([2]; pH 2.0 buffer): 1688 mL/g
Solubility Observation ([2]; pH 2.0 buffer, listed as Formula (I) bis-hydrochloride Form I): Very slightly soluble
Solubility Observation ([2]; pH 3.0 buffer): Practically insoluble
solubility ([2]; pH 3.0 buffer): 42855 mL/g
Solubility Observation ([2]; pH 4.0 buffer): Practically insoluble
solubility ([2]; pH 4.0 buffer): 331069 mL/g
Solubility Observation ([2]; pH 5.0 buffer): Practically insoluble
solubility ([2]; pH 5.0 buffer): 10759731 mL/g
Solubility Observation ([2]; pH 6.0 buffer): Practically insoluble
solubility ([2]; pH 6.0 buffer): 9770999 mL/g
Solubility Observation ([2]; pH 6.8 buffer): Practically insoluble
solubility ([2]; pH 6.8 buffer): 11528283 mL/g
Solubility Observation ([2]; pH 7.0 buffer): Practically insoluble
solubility ([2]; pH 7.0 buffer): 16139597 mL/g
Solubility Observation ([2]; pH 8.0 buffer): Practically insoluble
solubility ([2]; pH 8.0 buffer): 21884199 mL/g
solubility ([2]; simulated gastric fluid, thermodynamic from solid, pH 1.2 buffer, read-out: Solubility): 300 µg/mL (≈ 626 µM)
solubility ([2]; simulated gastric fluid, thermodynamic from solid, pH 2.0 buffer, read-out: Solubility): 600 µg/mL (≈ 1250 µM)
solubility ([2]; thermodynamic from solid, Water, read-out: Solubility): 1.5 µg/mL (≈ 3.13 µM)
A.U.I. (any unspecified impurity) ([3]; 3 mo): 0.03%
Identity HPLC ([3]; 3 mo): pass
Imp 1 ([3]; 3 mo): 0.02%
Imp RRT 1.7 ([3]; 3 mo): 0.08%
Purity ([3]; 3 mo): 99.8%
T.I. (total impurities) ([3]; 3 mo): 0.15%
T.U.I (total unspecified impurity) ([3]; 3 mo): 0.05%
A.U.I. (any unspecified impurity) ([3]; 6 mo): 0.03%
Identity HPLC ([3]; 6 mo): pass
Identity IR ([3]; 6 mo): pass
Identity PXRD ([3]; 6 mo): pass
Imp 1 ([3]; 6 mo): 0.03%
Imp RRT 1.7 ([3]; 6 mo): 0.08%
Purity ([3]; 6 mo): 99.8%
T.I. (total impurities) ([3]; 6 mo): 0.16%
T.U.I (total unspecified impurity) ([3]; 6 mo): 0.05%
A.U.I. (any unspecified impurity) ([3]; 9 mo): 0.03%
Identity HPLC ([3]; 9 mo): pass
Imp 1 ([3]; 9 mo): 0.02%
Imp RRT 1.7 ([3]; 9 mo): 0.08%
Purity ([3]; 9 mo): 99.8%
T.I. (total impurities) ([3]; 9 mo): 0.16%
T.U.I (total unspecified impurity) ([3]; 9 mo): 0.05%
A.U.I. (any unspecified impurity) ([3]; 12 mo): 0.06%
Identity HPLC ([3]; 12 mo): pass
Identity IR ([3]; 12 mo): Pass
Identity PXRD ([3]; 12 mo): Pass
Imp 1 ([3]; 12 mo): 0.02%
Imp RRT 1.7 ([3]; 12 mo): 0.02%
Purity ([3]; 12 mo): 99.8%
T.I. (total impurities) ([3]; 12 mo): 0.14%
T.U.I (total unspecified impurity) ([3]; 12 mo): 0.09%
A.U.I. (any unspecified impurity) ([3]; 18 mo): 0.06%
Identity HPLC ([3]; 18 mo): pass
Imp 1 ([3]; 18 mo): 0.02%
Imp RRT 1.7 ([3]; 18 mo): 0.02%
Purity ([3]; 18 mo): 99.9%
T.I. (total impurities) ([3]; 18 mo): 0.13%
T.U.I (total unspecified impurity) ([3]; 18 mo): 0.09%
A.U.I. (any unspecified impurity) ([3]; 24 mo): 0.06%
Identity HPLC ([3]; 24 mo): pass
Imp 1 ([3]; 24 mo): 0.02%
Imp RRT 1.7 ([3]; 24 mo): 0.02%
Purity ([3]; 24 mo): 99.8%
T.I. (total impurities) ([3]; 24 mo): 0.15%
T.U.I (total unspecified impurity) ([3]; 24 mo): 0.11%
A.U.I. (any unspecified impurity) ([3]; Init): 0.04%
Identity HPLC ([3]; Init): pass
Identity IR ([3]; Init): pass
Identity PXRD ([3]; Init): pass
Imp 1 ([3]; Init): 0.01%
Imp RRT 1.7 ([3]; Init): 0.08%
Purity ([3]; Init): 99.9%
T.I. (total impurities) ([3]; Init): 0.14%
T.U.I (total unspecified impurity) ([3]; Init): 0.05%
